Values after ≈ are worked out from the molar mass of the structure shown. Structures can show the parent of a compound that is named as a salt.
What was measured:
Malassezia furfur = assay: Antifungal activity against Malassezia furfur after 2 to 4 days by agar plate dilution method; format: functional
Staphylococcus aureus = assay: Antibacterial activity against methicillin resistant Staphylococcus aureus after 24 hrs by agar plate dilution method; format: functional
MCF7 [1] = assay: Cytotoxicity against human wild-type MCF7 cells after 72 hrs; format: functional, cell-based; details: MCF7, 72 h
[2] = target: ATP-dependent translocase ABCB1 (Homo sapiens, UniProt P08183); assay: Inhibition of MDR1 in human MCF7/ADR cells assessed as potentiation of verapamil-induced cytotoxicity by measuring cell growth (reference value: 78.2%); format: cell-based; design: scale not given: the % may be the effect or the level left
Homo sapiens [3] = species on record: Homo sapiens; assay: Inhibition of human DNA topoisomerase 2 ATPase activity at 200 mM by Topo-2 ATPase assay
Homo sapiens [4] = species on record: Homo sapiens; assay: Inhibition of human DNA topoisomerase 2-mediated decatenation of kinetoplast DNA at […] by kinetoplast DNA decatenation assay
Homo sapiens [5] = species on record: Homo sapiens; assay: Inhibition of human DNA topoisomerase 2 ATPase activity at 400 mM by Topo-2 ATPase assay
NCI/ADR-RES [6] = assay: Cytotoxicity against human MCF7/ADR cells after 72 hrs; format: functional, cell-based
Homo sapiens [7] = species on record: Homo sapiens; assay: Inhibition of human DNA topoisomerase 2 ATPase activity at 300 mM by Topo-2 ATPase assay
NCI/ADR-RES [8] = assay: Cytotoxicity against human MCF7/ADR cells assessed as cell growth at 3 mM after 72 hrs relative to control; format: functional; details: read-out: Activity
MCF7 [9] = assay: Cytotoxicity against human wild-type MCF7 cells assessed as cell growth at 3 mM after 72 hrs relative to control; format: functional; details: MCF7, 72 h, read-out: Activity
NCI/ADR-RES [10] = assay: Cytotoxicity against human MCF7/ADR cells assessed as inhibition of cell proliferation at 10^-6 M after 5 days by MTT assay; format: functional; details: 120 h
Rattus norvegicus [11] = assay: Anti-inflammatory activity in Wistar Han rat assessed as reduction of carrageenan-induced PGE2 levels at 10 mg/kg, po administered 1 hr prior to carrageenan challenge by radioimmunoassay; format: functional
[12] = target: T1, Polyunsaturated fatty acid 5-lipoxygenase (Homo sapiens, UniProt P09917); assay: Inhibition of 5-LO in LPS-stimulated human neutrophils by HPLC analysis
T1 sequence (P09917 whole entry): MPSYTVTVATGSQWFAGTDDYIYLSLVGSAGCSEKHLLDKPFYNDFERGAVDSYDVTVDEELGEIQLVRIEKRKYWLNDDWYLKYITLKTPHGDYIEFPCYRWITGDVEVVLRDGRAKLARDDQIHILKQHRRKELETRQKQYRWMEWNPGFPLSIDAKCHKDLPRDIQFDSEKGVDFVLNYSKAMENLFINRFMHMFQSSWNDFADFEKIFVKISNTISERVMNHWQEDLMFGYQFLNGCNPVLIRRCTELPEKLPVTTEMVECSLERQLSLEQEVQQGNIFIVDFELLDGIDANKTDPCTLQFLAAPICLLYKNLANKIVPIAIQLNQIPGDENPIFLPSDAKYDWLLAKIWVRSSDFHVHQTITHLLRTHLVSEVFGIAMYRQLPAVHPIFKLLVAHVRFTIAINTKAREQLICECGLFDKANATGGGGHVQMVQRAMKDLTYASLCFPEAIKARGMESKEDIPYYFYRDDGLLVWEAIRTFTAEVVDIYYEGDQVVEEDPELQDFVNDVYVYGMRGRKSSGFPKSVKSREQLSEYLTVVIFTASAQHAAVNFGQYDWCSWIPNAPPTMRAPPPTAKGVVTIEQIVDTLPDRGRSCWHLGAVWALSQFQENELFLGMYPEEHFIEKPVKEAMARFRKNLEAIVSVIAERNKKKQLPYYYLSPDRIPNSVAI

MOLT-4 [13] = assay: Antiproliferative activity against human MOLT4 cells after 48 hrs; format: functional, cell-based; details: MOLT-4, 48 h
[14] = Inhibition of PMA-induced HGF production in HDF at 0.1 mg/ml after 24 hrs by ELISA; format: functional; details: Homo sapiens
K562 [15] = assay: Induction of apoptosis in human K562 cells assessed as late apoptotic cells at 12.5 ug/ml by Annexin V/propidium iodide staining-based flow cytometry; format: functional
[16] = Antiproliferative activity against spleen cells from SBP-immunized mouse assessed as fluorescence intensity at 5 uM after 3 days by Alamar blue dye-based method (reference value: 2781 +/- 59I); format: functional, Spleen cell
[17] = Antiproliferative activity against spleen cells from SBP-immunized mouse assessed as fluorescence intensity at 10 uM after 3 days by Alamar blue dye-based method (reference value: 2781 +/- 59I); format: functional, Spleen cell
Rattus norvegicus [18] = assay: Anti-inflammatory activity in Wistar Han rat assessed as reduction of carrageenan-induced pleural LTB4 levels at 10 mg/kg, po administered 1 hr prior to carrageenan challenge by HPLC analysis; format: functional
Rattus norvegicus [19] = assay: Anti-inflammatory activity in Wistar Han rat assessed as reduction in carrageenan-induced increase in infiltrating cells at 10 mg/kg, po administered 1 hr prior to carrageenan challenge by vital trypan blue staining-based microscopic method; format: functional
[20] = target: T1, Polyunsaturated fatty acid 5-lipoxygenase; assay: Inhibition of 5-LO in fMLP-stimulated human neutrophils by HPLC analysis
[21] = Inhibition of EGF-induced HGF production in HDF at 2 mg/ml after 72 hrs by ELISA; format: functional; details: Homo sapiens
HL-60 [22] = assay: Antiproliferative activity against human HL60 cells after 48 hrs; format: functional, cell-based
K562 [23] = assay: Induction of apoptosis in human K562 cells assessed as late apoptotic cells at 25 ug/ml by Annexin V/propidium iodide staining-based flow cytometry; format: functional
K562 [24] = assay: Induction of apoptosis in human K562 cells assessed as late apoptotic cells at 6.25 ug/ml by Annexin V/propidium iodide staining-based flow cytometry; format: functional
HL-60 [25] = assay: Antiproliferative activity against human HL60 cells after 24 hrs; format: functional, cell-based; details: HL-60, 24 h
[26] = target: Indoleamine 2,3-dioxygenase 1 (Homo sapiens, UniProt P14902); assay: Inhibition of IDO-1 (unknown origin)
K562 [27] = assay: Antiproliferative activity against human K562 cells after 48 hrs by MTT staining-based method; format: functional, cell-based; details: K562, 48 h
K562 [28] = assay: Antiproliferative activity against human K562 cells after 24 hrs; format: functional, cell-based; details: K562, 24 h
MOLT-4 [29] = assay: Antiproliferative activity against human MOLT4 cells after 24 hrs; format: functional, cell-based; details: MOLT-4, 24 h
K562 [30] = assay: Antiproliferative activity against human K562 cells after 48 hrs; format: functional, cell-based; details: K562, 48 h
Rattus norvegicus [31] = assay: Anti-inflammatory activity in Wistar Han rat assessed as reduction in carrageenan-induced exudate volume at 10 mg/kg, po administered 1 hr prior to carrageenan challenge; format: functional

Sequence of Indoleamine 2,3-dioxygenase 1 (P14902 whole entry): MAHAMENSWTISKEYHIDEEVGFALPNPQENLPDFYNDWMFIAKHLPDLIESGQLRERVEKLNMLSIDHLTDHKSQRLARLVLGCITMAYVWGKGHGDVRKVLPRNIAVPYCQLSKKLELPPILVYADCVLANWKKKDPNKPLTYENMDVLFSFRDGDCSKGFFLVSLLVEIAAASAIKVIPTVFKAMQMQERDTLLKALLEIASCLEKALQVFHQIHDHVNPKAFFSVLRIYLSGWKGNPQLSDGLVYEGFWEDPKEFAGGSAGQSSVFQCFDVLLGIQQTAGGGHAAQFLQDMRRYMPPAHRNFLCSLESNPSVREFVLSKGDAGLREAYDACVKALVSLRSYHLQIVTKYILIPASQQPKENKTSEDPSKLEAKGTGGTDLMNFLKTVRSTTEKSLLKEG
Sequence of ATP-dependent translocase ABCB1 (P08183 whole entry): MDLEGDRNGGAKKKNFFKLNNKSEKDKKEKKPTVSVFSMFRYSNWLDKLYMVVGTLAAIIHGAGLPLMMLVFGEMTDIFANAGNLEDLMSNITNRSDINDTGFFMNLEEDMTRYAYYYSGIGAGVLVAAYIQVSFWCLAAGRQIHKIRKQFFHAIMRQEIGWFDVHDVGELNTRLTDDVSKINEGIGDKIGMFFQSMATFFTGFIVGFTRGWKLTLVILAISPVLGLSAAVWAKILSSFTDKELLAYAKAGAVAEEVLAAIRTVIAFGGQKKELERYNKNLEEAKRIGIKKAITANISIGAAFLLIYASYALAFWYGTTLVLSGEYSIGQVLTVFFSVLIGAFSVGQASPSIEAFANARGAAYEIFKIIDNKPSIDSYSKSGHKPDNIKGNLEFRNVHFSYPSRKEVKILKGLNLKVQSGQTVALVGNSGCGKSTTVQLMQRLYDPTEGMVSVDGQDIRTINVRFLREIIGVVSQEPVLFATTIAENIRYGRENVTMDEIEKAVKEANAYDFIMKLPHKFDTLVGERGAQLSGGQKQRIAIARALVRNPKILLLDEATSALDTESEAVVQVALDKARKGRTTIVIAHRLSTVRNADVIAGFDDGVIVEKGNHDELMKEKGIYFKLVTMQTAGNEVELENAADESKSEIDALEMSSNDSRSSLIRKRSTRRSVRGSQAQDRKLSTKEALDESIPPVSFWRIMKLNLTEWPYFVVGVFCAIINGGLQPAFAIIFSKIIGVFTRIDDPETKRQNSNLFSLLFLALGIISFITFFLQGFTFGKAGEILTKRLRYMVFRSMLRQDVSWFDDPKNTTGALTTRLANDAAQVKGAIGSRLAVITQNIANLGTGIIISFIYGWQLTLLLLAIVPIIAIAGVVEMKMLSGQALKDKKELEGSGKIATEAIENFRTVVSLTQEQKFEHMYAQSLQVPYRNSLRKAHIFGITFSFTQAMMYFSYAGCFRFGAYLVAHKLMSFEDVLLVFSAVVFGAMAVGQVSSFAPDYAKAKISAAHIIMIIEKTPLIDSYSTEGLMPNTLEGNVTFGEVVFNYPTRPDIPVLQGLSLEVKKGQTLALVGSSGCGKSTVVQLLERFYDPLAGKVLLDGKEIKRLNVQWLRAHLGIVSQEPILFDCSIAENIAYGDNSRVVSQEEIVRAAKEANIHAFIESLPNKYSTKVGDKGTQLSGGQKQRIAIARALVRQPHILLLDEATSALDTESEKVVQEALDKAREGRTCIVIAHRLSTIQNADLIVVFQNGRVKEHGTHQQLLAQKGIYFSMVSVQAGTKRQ

Compound: O=C1c2cc(F)ccc2-n2c1nc1ccccc1c2=O
- MIC (Malassezia furfur): 1 µg/mL (≈ 3.76 µM)
- MIC (Staphylococcus aureus): 0.1 µg/mL (≈ 0.376 µM)

Compound: O=C1c2ccccc2-n2c1nc1ccc(Cl)cc1c2=O
- MIC (Malassezia furfur): 4 µg/mL (≈ 14.1 µM)
- MIC (Staphylococcus aureus): 0.1 µg/mL (≈ 0.354 µM)

Compound: O=C1c2cc3ccccc3cc2-n2c1nc1ccccc1c2=O
- IC50 (MCF7 [1]): 0.27 to 12.1 µM
- Activity [2]: 59%
- inhibition (Homo sapiens [3]): 30.7%
- inhibition (Homo sapiens [4]): 43.4%
- inhibition (Homo sapiens [5]): 47.2%
- IC50 (NCI/ADR-RES [6]): 0.16 to 9.82 µM

Compound: COc1ccc2c(c1)C(=O)c1nc3ccccc3c(=O)n1-2
- MIC (Malassezia furfur): > 120 µg/mL
- MIC (Staphylococcus aureus): 2.5 µg/mL (≈ 8.98 µM)

Compound: O=C1c2ccccc2-n2c1nc1ccc([N+](=O)[O-])cc1c2=O
- MIC (Malassezia furfur): > 160 µg/mL
- MIC (Staphylococcus aureus): > 100 µg/mL

Compound: Nc1ccc2nc3n(c(=O)c2c1)-c1ccccc1C3=O
- MIC (Malassezia furfur): 20 µg/mL (≈ 76 µM)
- MIC (Staphylococcus aureus): 2 µg/mL (≈ 7.6 µM)

Compound: Cc1ccc2c(c1)C(=O)c1nc3ccccc3c(=O)n1-2
- MIC (Malassezia furfur): > 120 µg/mL
- MIC (Staphylococcus aureus): 0.5 µg/mL (≈ 1.91 µM)

Compound: COc1ccc(CCN(C)CCCC(C#N)(c2ccc(OC)c(OC)c2)C(C)C)cc1OC (configuration not stated)
- Activity [2]: 18.1%

Compound: O=C1c2cc(Br)ccc2-n2c1nc1ccccc1c2=O
- MIC (Malassezia furfur): 2.5 µg/mL (≈ 7.64 µM)
- MIC (Staphylococcus aureus): 0.1 µg/mL (≈ 0.306 µM)

Compound: O=C1c2ccccc2-n2c1nc1ccc(Br)cc1c2=O
- MIC (Malassezia furfur): 4 µg/mL (≈ 12.2 µM)
- MIC (Staphylococcus aureus): 0.3 µg/mL (≈ 0.917 µM)

Compound: CO[C@@H]1[C@@H](OC(N)=O)[C@@H](O)[C@H](Oc2ccc3c(O)c(NC(=O)c4ccc(O)c(CC=C(C)C)c4)c(=O)oc3c2C)OC1(C)C
- inhibition (Homo sapiens [3]): 38.5%
- inhibition (Homo sapiens [7]): 45.9%
- inhibition (Homo sapiens [5]): 60.2%

Compound: COc1cccc2c1C(=O)c1c(O)c3c(c(O)c1C2=O)C[C@@](O)(C(=O)CO)C[C@@H]3O[C@H]1C[C@H](N)[C@H](O)[C@H](C)O1 [DOXORUBICIN HYDROCHLORIDE]
- IC50 (MCF7 [1]): 0.99 to 2.63 µM
- growth at 3000 µM (NCI/ADR-RES [8]): 0.44 to 78.2%
- growth at 3000 µM (MCF7 [9]): 3.9 to 24.1%
- IC50 (NCI/ADR-RES [6]): > 50 µM

Compound: COc1cccc2c1C(=O)c1c(O)c3c(c(O)c1C2=O)C[C@@](O)(C(=O)CO)C[C@@H]3O[C@H]1C[C@H](N)[C@H](O)[C@H](C)O1 [DOXORUBICIN]
- inhibition at 1 µM (NCI/ADR-RES [10]): 20%

Compound: O=C1c2ccccc2-n2c1nc1ccccc1c2=O [TRYPTANTHRIN]
- inhibition in vivo at 10 mg/kg (Rattus norvegicus [11]): 42%
- IC50 [12]: 0.2 to 0.6 µM
- IC50 (MOLT-4 [13]): 8 µM
- inhibition at 100 µg/mL [14]: 70%
- IC50 (MCF7 [1]): 0.58 to 15.5 µM
- Activity (K562 [15]): 33.4%
- Flu intensity [16]: 2826
- Flu intensity [17]: 2740
- inhibition in vivo at 10 mg/kg (Rattus norvegicus [18]): 46%
- inhibition in vivo at 10 mg/kg (Rattus norvegicus [19]): 41%
- MIC (Malassezia furfur): 4 µg/mL (≈ 16.1 µM)
- IC50 [20]: 0.2 to 0.6 µM
- inhibition at 2000 µg/mL [21]: 70%
- IC50 (HL-60 [22]): 2 to 20000 µM
- Activity (K562 [23]): 52.2%
- Activity (K562 [24]): 21.9%
- IC50 (HL-60 [25]): 5 µM
- IC50 [26]: 499 µM
- IC50 (K562 [27]): 8.8 µg/mL (≈ 35.4 µM)
- MIC (Staphylococcus aureus): 0.5 µg/mL (≈ 2.01 µM)
- IC50 (K562 [28]): 15 µM
- IC50 (MOLT-4 [29]): 10 µM
- IC50 (K562 [30]): 5 µM
- IC50 (NCI/ADR-RES [6]): 0.03 to 10 µM
- inhibition in vivo at 10 mg/kg (Rattus norvegicus [31]): 80%

Compound: N[C@@H](Cc1c[nH]c2ccccc12)C(=O)O [TRYPTOPHAN]
- IC50 [26]: 499 µM
